Assays:
[1] = molecular target: T1, Human cytomegalovirus DNA polymerase (Human cytomegalovirus, UniProt P08546); assay: CMV polymerase assay (AlphaLISA); format: biochemical; details: HCMV polymerase 0.2 nM; 30 min pre-incubation; 60 min at 37° C.; read-out: CMV (IC50)
T1 construct: made in house; host or cells: SF21 insect cells (baculovirus vector)
Procedure: Human cytomegalovirus and varicella zoster virus DNA polymerases were expressed via baculovirus vector in SF21 cells and purified. Heterodimeric nucleic acid substrate used in the herpesvirus polymerase reactions was generated by annealing a 59-mer template to a 17-mer digoxigenin-labeled primer. Polymerase (HCMV final concentration of 0.2 nM; VZV final concentration of 0.4 nM) was combined with an inhibitor compound or DMSO in assay buffer (10 mM HEPES, pH 7.5, 25 mM KCl, 25 mM NaCl, 5 mM MgCl2, 5% glycerol, 0.67 mg/ml bovine serum albumin, and 1 mM tris(2-carboxyethyl)phosphine), and this mixture was pre-incubated for 30 minutes at room temperature in 384-well microtiter plates. The polymerization reaction was initiated by the addition of template/primer substrate (final concentration: 1.6 nM), and dNTPs (final concentration: 24 nM dCTP, 24 nMdGTP, 16 nM dATP, 16 nM dTTP, and 0.8 nM biotin-dUTP). After 60 min incubation at 37° C., reactions were terminated with quench buffer (25 mM HEPES pH 7.5, 100 mM NaCl, 0.25% Tween-20, 12 mM EDTA, and 1 mg/ml bovine serum albumin). Incorporation of biotinylated UTP was detected with 2.5-5 ug/ml anti-DIG AlphaLISA acceptor beads and 5-10 ug/ml streptavidin AlphaLISA donor beads (PerkinElmer). Compound effects were normalized to the window defined by the controls (DMSO only and pre-quenched wells) and were fit using a 4-parameter algorithm to report an IC50.

HCMV Strain AD169 = assay: Viral qPCR assay, HCMV; format: cell-based, Human cytomegalovirus; details: Human betaherpesvirus 5, AD169, MRC5, 72 h, MRC-5 cells, 0.05-0.1 pfu/cell, growth media or 50% fetal bovine serum, viral genome copies by qPCR, read-out: CMV Cell (EC50)
Procedure: (§1) MRC5 cells, Vero cells, and MeWo cells were obtained from ATCC, and were maintained at 37° C./5% CO2/90% relative humidity in Minimal Essential Medium with 10% fetal bovine serum, […] L-glutamine, 100 units/ml penicillin and 100 ug/ml streptomycin. Assay plates were prepared by dispensing compounds dissolved in DMSO into wells of 384 well collagen-coated plates using an ECHO acoustic dispenser. Each compound was tested in a 10-point, serial 3-fold dilution. Controls included uninfected cells and infected cells treated only with DMSO. Assays were initiated by mixing selected cells, in suspension, with virus, and dispensing 50 μl/well infected cells to pre-plated compounds. Plates were incubated at 37° C./5% CO2/90% relative humidity for ˜72 hrs to permit genomic replication, and infected cells were lysed by the addition of an equal volume of lysis buffer (10 mM Tris-HCl, pH8, 50 mM KCl, 2 mM MgCl2, 0.45% NP-40, 0.45% Tween-20, and 100 μg/ml proteinase K). An aliquot of the lysate was transferred to a 384-well PCR plate and incubated at 56° C. for 1 hour and then at 95° C. for 10 min. Levels of a viral gene and of the cellular control, PPIA (Thermo Fisher Assay ID=Hs04194521_s1), were measured in separate 10 ul qPCR assays using TaqMan® Gene Expression Master Mix (Applied Biosystems), and an 7900HT Fast Real-Time PCR System with 384-Well Block Module. 7-point, serial 10-fold dilutions of a plasmid standard were run on each plate to generate a standard curve, and genome copies numbers were calculated by plotting experimental Ct onto linear regression of the standard curve. Viral genome copy numbers were normalized by cellular control copy number, and compound effects were normalized to the window defined by the controls. Calculated % effects were fit using a 4-parameter algorithm, and EC50 was reported.
(§2) MRC5 cells, Vero cells, and MeWo cells were obtained from ATCC, and were maintained at 37° C./5% CO2/90% relative humidity in Minimal Essential Medium with 10% fetal bovine serum, […] L-glutamine, 100 units/ml penicillin and 100 ug/ml streptomycin. Assay plates were prepared by dispensing compounds dissolved in DMSO into wells of 384 well collagen-coated plates using an ECHO acoustic dispenser. Each compound was tested in a 10-point, serial 3-fold dilution. Controls included uninfected cells and infected cells treated only with DMSO. Assays were initiated by mixing selected cells, in suspension, with virus, and dispensing 50 μl/well infected cells to pre-plated compounds. Plates were incubated at 37° C./5% CO2/90% relative humidity for ˜72 hrs to permit genomic replication, and infected cells were lysed by the addition of an equal volume of lysis buffer (10 mM Tris-HCl, pH 8, 50 mM KCl, 2 mM MgC12, 0.45% NP-40, 0.45% Tween-20, and 100 μg/ml proteinase K). An aliquot of the lysate was transferred to a 384-well PCR plate and incubated at 56° C. for 1 hour and then at 95° C. for 10 min. Levels of a viral gene were measured in 10 ul qPCR assays using TaqMan® Gene Expression Master Mix (Applied Biosystems), and an 7900HT Fast Real-Time PCR System with 384-Well Block Module. 7-point, serial 10-fold dilutions of a plasmid standard were run on each plate to generate a standard curve, and genome copies numbers were calculated by plotting experimental Ct onto linear regression of the standard curve. Compound effects on viral genome copy number were normalized to the window defined by the controls. Calculated % effects were fit using a 4-parameter algorithm, and ECso was reported.
HCMV: Strain AD169 Street was assayed in MRC-5 cells and was used at 0.05-0.1 pfu/cell. The assays were performed in either growth media or in the same media with 50% fetal bovine serum. Primer-probe set was Thermo Fisher Assay ID=AIFATFK.

VZV = assay: Viral qPCR assay, VZV; format: cell-based, varicella zoster virus; details: Human alphaherpesvirus 3, 72 h, MeWo or MRC5 cells, 0.04-0.1 pfu/cell, growth medium, viral genome copies by qPCR
Procedure: as §1, §2
VZV: Strain Street was maintained as an infected cell stock in MRC-5 cells. It was assayed in MeWo or MRC5 cells and was used at 0.04-0.1 pfu/cell. The assays were performed in growth medium. Primer-probe set was Thermo Fisher Assay ID=AIPAEXQ.

HSV-1 Strain F = assay: Viral qPCR assay, HSV-1; format: cell-based, Herpes Simplex Virus type 1; details: Human alphaherpesvirus 1, 72 h, Vero or MRC5 cells, 0.0005-0.004 pfu/cell, growth medium, viral genome copies by qPCR, read-out: HSV1 Cell (EC50)
Procedure: as §1, §2
HSV-1: Strain F […] was assayed in Vero or MRC5 cells and was used at 0.0005-0.004 pfu/cell in growth medium. Primer-probe set was Thermo Fisher Assay ID=AIBJZIB

T1 sequence (P08546 whole entry): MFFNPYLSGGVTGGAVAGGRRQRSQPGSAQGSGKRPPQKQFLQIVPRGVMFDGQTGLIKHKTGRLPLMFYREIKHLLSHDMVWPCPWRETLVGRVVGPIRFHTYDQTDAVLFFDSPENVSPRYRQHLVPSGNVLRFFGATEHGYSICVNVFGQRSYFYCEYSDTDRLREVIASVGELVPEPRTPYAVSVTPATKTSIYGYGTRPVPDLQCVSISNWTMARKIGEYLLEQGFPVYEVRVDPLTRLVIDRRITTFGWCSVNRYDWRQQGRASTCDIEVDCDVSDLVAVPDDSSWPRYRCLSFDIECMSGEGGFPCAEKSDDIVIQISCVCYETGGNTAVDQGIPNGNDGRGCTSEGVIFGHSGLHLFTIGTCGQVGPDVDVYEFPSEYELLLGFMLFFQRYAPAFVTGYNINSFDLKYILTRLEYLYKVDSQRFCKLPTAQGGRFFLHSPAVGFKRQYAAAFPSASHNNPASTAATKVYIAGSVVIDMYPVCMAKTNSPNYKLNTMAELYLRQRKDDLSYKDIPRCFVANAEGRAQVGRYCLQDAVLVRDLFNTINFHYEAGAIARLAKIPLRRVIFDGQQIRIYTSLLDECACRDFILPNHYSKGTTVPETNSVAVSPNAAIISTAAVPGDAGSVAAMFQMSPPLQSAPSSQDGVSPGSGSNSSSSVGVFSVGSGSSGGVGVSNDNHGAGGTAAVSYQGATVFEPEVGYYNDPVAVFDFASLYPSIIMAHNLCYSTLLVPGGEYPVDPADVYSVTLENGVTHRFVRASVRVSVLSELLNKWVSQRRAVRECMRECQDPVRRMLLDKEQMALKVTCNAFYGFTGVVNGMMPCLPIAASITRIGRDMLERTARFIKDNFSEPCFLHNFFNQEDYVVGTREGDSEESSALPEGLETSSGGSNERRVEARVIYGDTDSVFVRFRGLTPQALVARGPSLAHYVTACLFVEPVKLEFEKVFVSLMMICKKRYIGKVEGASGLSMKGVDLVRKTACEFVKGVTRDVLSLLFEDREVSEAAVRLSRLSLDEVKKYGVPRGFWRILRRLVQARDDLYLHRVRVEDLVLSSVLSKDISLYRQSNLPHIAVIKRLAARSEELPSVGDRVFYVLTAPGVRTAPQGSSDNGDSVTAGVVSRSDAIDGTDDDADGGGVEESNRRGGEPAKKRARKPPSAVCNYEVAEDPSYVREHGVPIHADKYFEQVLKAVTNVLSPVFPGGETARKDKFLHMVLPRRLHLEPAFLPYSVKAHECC

SMILES: COc1nc(-c2cc3ccccc3[nH]2)c(O[C@H]2CCN3C(=O)OC[C@@H]3C2)cc1C(=O)NCc1ccc(Cl)cc1 [Compound 26]
- IC50 [1]: 5.8 nM
- EC50 (HCMV Strain AD169): 372 nM
- EC50 (VZV): 208 nM
- EC50 (HSV-1 Strain F): 174 nM

SMILES: COc1nc(-c2cc3nccnc3[nH]2)c(O[C@H]2CCN3C(=O)OC[C@@H]3C2)cc1C(=O)NCc1ccc(Cl)cc1 [Compound 27]
- IC50 [1]: 33.6 nM
- EC50 (HCMV Strain AD169): 556 nM
- EC50 (VZV): 859 nM
- EC50 (HSV-1 Strain F): 648 nM

SMILES: COc1nc(-c2cc[nH]c2)c(O[C@H]2CCN3C(=O)OC[C@@H]3C2)cc1C(=O)NCc1ccc(Cl)cc1 [Compound 28]
- IC50 [1]: 5.36 nM
- EC50 (HCMV Strain AD169): 200 nM
- EC50 (VZV): 196 nM
- EC50 (HSV-1 Strain F): 103 nM

SMILES: COc1nc(-c2csc(-n3cccn3)n2)c(O[C@H]2CCN3C(=O)OC[C@@H]3C2)cc1C(=O)NCc1ccc(Cl)cc1 [Compound 29]
- IC50 [1]: 31.2 nM
- EC50 (HCMV Strain AD169): 514 nM
- EC50 (VZV): 368 nM
- EC50 (HSV-1 Strain F): 246 nM

SMILES: COc1nc(-c2ccn(C)c2)c(O[C@H]2CCN3C(=O)OC[C@@H]3C2)cc1C(=O)NCc1ccc(Cl)cc1 [Compound 30]
- IC50 [1]: 14.5 nM
- EC50 (HCMV Strain AD169): 462 nM
- EC50 (VZV): 187 nM
- EC50 (HSV-1 Strain F): 202 nM

SMILES: CCn1cc(-c2nc(OC)c(C(=O)NCc3ccc(Cl)cc3)cc2O[C@H]2CCN3C(=O)OC[C@@H]3C2)cn1 [Compound 31]
- IC50 [1]: 5.13 nM
- EC50 (HCMV Strain AD169): 175 nM
- EC50 (VZV): 102 nM
- EC50 (HSV-1 Strain F): 103 nM

SMILES: COc1nc(-c2cnn(CCO)c2)c(O[C@H]2CCN3C(=O)OC[C@@H]3C2)cc1C(=O)NCc1ccc(Cl)cc1 [Compound 32]
- IC50 [1]: 0.705 nM
- EC50 (HCMV Strain AD169): 103 nM
- EC50 (VZV): 106 nM
- EC50 (HSV-1 Strain F): 52 nM

SMILES: COc1ccc(-c2nc(OC)c(C(=O)NCc3ccc(Cl)cc3)cc2O[C@H]2CCN3C(=O)OC[C@@H]3C2)s1 [Compound 33]
- IC50 [1]: 11 nM
- EC50 (HCMV Strain AD169): 901 nM
- EC50 (VZV): 679 nM
- EC50 (HSV-1 Strain F): 144 nM

SMILES: COc1csc(-c2nc(OC)c(C(=O)NCc3ccc(Cl)cc3)cc2O[C@H]2CCN3C(=O)OC[C@@H]3C2)c1 [Compound 34]
- IC50 [1]: 8.26 nM
- EC50 (HCMV Strain AD169): 421 nM
- EC50 (VZV): 1920 nM
- EC50 (HSV-1 Strain F): 260 nM

SMILES: COc1nc(-c2ccc(N)nc2)c(O[C@H]2CCN3C(=O)OC[C@@H]3C2)cc1C(=O)NCc1ccc(Cl)cc1 [Compound 36]
- IC50 [1]: 3.38 nM
- EC50 (HCMV Strain AD169): 175 nM
- EC50 (VZV): 92.3 nM
- EC50 (HSV-1 Strain F): 82 nM

SMILES: COc1nc(-c2ccc3[nH]ccc3c2)c(O[C@H]2CCN3C(=O)OC[C@@H]3C2)cc1C(=O)NCc1ccc(Cl)cc1 [Compound 39]
- IC50 [1]: 81.5 nM
- EC50 (HCMV Strain AD169): 886 nM
- EC50 (VZV): 1360 nM
- EC50 (HSV-1 Strain F): 658 nM

SMILES: COc1nc(-c2cnc3[nH]ccc3c2)c(O[C@H]2CCN3C(=O)OC[C@@H]3C2)cc1C(=O)NCc1ccc(Cl)cc1 [Compound 41]
- IC50 [1]: 17 nM
- EC50 (HCMV Strain AD169): 606 nM
- EC50 (VZV): 418 nM
- EC50 (HSV-1 Strain F): 494 nM

SMILES: COc1nc(-c2ccncc2)c(O[C@H]2CCN3C(=O)OC[C@@H]3C2)cc1C(=O)NCc1ccc(Cl)cc1 [Compound 42]
- IC50 [1]: 10.4 nM
- EC50 (HCMV Strain AD169): 194 nM
- EC50 (VZV): 130 nM
- EC50 (HSV-1 Strain F): 79.8 nM

SMILES: COc1ccc(-c2nc(OC)c(C(=O)NCc3ccc(Cl)cc3)cc2O[C@H]2CCN3C(=O)OC[C@@H]3C2)cn1 [Compound 43]
- IC50 [1]: 22.3 nM
- EC50 (HCMV Strain AD169): 422 nM
- EC50 (VZV): 298 nM
- EC50 (HSV-1 Strain F): 169 nM

SMILES: COc1nc(-c2cncc(CO)c2)c(O[C@H]2CCN3C(=O)OC[C@@H]3C2)cc1C(=O)NCc1ccc(Cl)cc1 [Compound 44]
- IC50 [1]: 20 nM
- EC50 (HCMV Strain AD169): 326 nM
- EC50 (VZV): 585 nM
- EC50 (HSV-1 Strain F): 263 nM

SMILES: COc1nc(-c2cnc(N)nc2)c(O[C@H]2CCN3C(=O)OC[C@@H]3C2)cc1C(=O)NCc1ccc(Cl)cc1 [Compound 45]
- IC50 [1]: 2.3 nM
- EC50 (HCMV Strain AD169): 111 nM
- EC50 (VZV): 141 nM
- EC50 (HSV-1 Strain F): 50 nM

SMILES: COc1nc(-c2ccc(=O)[nH]c2)c(O[C@H]2CCN3C(=O)OC[C@@H]3C2)cc1C(=O)NCc1ccc(Cl)cc1 [Compound 47]
- IC50 [1]: 4.87 nM
- EC50 (HCMV Strain AD169): 1300 nM
- EC50 (VZV): 2320 nM
- EC50 (HSV-1 Strain F): 654 nM
